Laboratory results from article PMC10568017, “A quest for the stereo-electronic requirements for selective agonism for the neurotrophin receptors TrkA and TrkB in 17-spirocyclic-dehydroepiandrosterone derivatives” (Frontiers in Molecular Neuroscience, 2023).
Entries after “also recorded” stand apart in the source; their conditions may differ.

Key:
[1] = system: PC12 cells; assay: CellTox assay, survival of PC12 cells under serum deprivation; assay type: cell-based; conditions: for protection of PC12 cells from serum deprivation-induced cell death (CellTox): compound 500 nM, 24 h, after 4 h serum starvation, NGF 100 ng/mL as control (Figure 9); for protection of PC12 cells from serum deprivation-induced death (CellTox): compound 1 μM, NGF 100 ng/mL as control (Figure 10)
Description: PC12 cells were obtained from LGC Promochem and cultured under specified conditions. Cells were grown in DMEM medium (Thermo Fischer Scientific, cat# 10566016) containing 10% horse serum (Thermo Fischer Scientific, cat# 16050122), 5% fetal bovine serum (Thermo Fischer Scientific, cat# 10270106), 100 units/mL penicillin, and 0.1 mg/mL streptomycin (Thermo Fischer Scientific, cat# 15140122) at 5% CO2 and 37°C. Cells were used between passages 5 and 20.
CellTox assay (G8742, Promega, Leiden, Belgium) was used to assess the survival of PC12 cells under serum deprivation conditions. PC12 cells were plated in 96-well plates, starved from serum for 4 h, and subsequently treated with NGF (100 ng/mL) or compound (500 nM) for 24 h. CellTox assay reagents and Hoescht (1:10,000, H3570, Invitrogen, Massachusetts, USA) were then added to each well for 30 min, and then, cells were imaged with a Zeiss AXIO Vert A1 fluorescent microscope. CellTox positive cells were normalized to the total number of cells for each image.
Initially, we tested compounds ENT-A002, ENT-A007, ENT-A009, ENTA025, ENT-A026, ENT-A033, ENT-A034, ENT-A035, ENT-A036, ENT-A037, ENT-A046, ENT-A047, ENT-A055, and ENT-A056 for their ability to protect PC12 cells from serum deprivation-induced cell death as well as for their ability to activate TrkA downstream pro-survival signaling kinases Akt and Erk1/2 (Figures 9A–C). We opted to employ PC12 cells, which express receptors TrkA and p75 and have been routinely used for investigating NGF-TrkA signaling. PC12 cells were subjected to a period of nutrient deprivation (without fetal bovine serum and horse serum in their culture medium) for 4 h. Following this, NGF (100 ng/mL) or one of the compounds (500 nM or 1 μM) was administered and allowed to interact with the cells for 24 h. Following that, CellTox and Hoescht dyes were added and cells were imaged to assess cell death. Control cases involved cells cultured in full medium (serum), cells under starvation conditions (serum-free), and cells under starvation conditions treated with DMSO (SF+DMSO).

[2] = system: NIH-3T3 TrkB-expressing cell line; assay: CellTox Green cytotoxicity assay in NIH-3T3 cells stable transfected with TrkB under serum deprivation; assay type: cell-based; conditions: compound 1 μM, 24 h, after 24 h serum starvation; BDNF 500 ng/mL as control
Description: We tested compounds on three cellular systems, primary cortical astrocytes from 2-day-old mice (as a natively TrkB-expressing neuronal population), and NIH-3T3 fibroblasts stable transfected with TrkB and NIH-3T3 naïve cells. Cells were grown with high-glucose DMEM medium supplemented with 10% fetal bovine serum (FBS), 100 μg/mL streptomycin, and 100 units/mL penicillin at 37°C in a humidified 5% CO2 atmosphere. Phosphorylation results presented here are in primary astrocytes, and cell toxicity assay results are in NIH-3T3 stable transfected cells with TrkB.
NIH-3T3 stable transfected cells with TrkB were plated in 96-well plates at a density of 10,000 cells/well, before carrying out serum starvation for 24 h. Cells were then treated for 24 h with either BDNF at 500 ng/mL (control) or the compounds at 1 μM.
For the cell toxicity assay, we used CellTox™ Green Dye (2,000 × , Promega) for the visualization of dead cells and Hoechst 33,342 solution (10,000 × ) for total cells. A ZEISS Axio Vert.A1 microscope was used for image capture, and the ImageJ software (https://imagej.nih.gov/ij/) was used for analysis. The number of CellTox positive cells was normalized against the total number of cells observed in each image.
The NIH-3T3 TrkB cell line, which is stable and transfected to specifically express the TrkB receptor, was used for the screening of the new compounds for their ability to protect cells from serum deprivation-induced apoptosis through the activation of the TrkB receptor. Cell death was induced by serum deprivation for 24 h and then BDNF (500 ng/mL), the native neurotrophin ligand of the TrkB receptor, or compounds ENT-A007, ENT-A009, ENTA025, ENT-A026, ENT-A033, ENT-A034, ENT-A035, ENT-A036, ENT-A037, ENT-A046, ENT-A047, ENT-A055, and ENT-A056 (1 μM) were added to the media for 24 h.

[3] = Metabolic stability in pooled human liver microsomes; assay type: in vitro ADME; conditions: 1 μM; for residual of time zero: pooled human liver microsomes 0.5 mg/mL, t = 60 min, NADPH; for parent structure loss (depletion) class: pooled human liver microsomes, 60 min
Description: For metabolic stability assessment, pooled human liver microsomes were employed at 0.5 mg/mL. Incubation conditions were optimized to ensure linear metabolite formation with respect to protein concentration and reaction time. All test compounds were assessed at 1 μM based on our ADMET standard operating procedures and protocols, also published previously (1 μM was selected based on our ADMET standard operating procedures and protocols also published previously) (Rogdakis et al., [2022]; Yilmaz et al., [2022]). Approximately 1 mM of NADPH served as a cofactor. Reactions took place in triplicates at 37°C. Negative and positive controls (low vs. rapid clearance) were included for low vs. rapid clearance. After 60 min, reactions were terminated.
Parent structure loss is classified as very slow (<5%), slow (5–19%), moderate (20–50%), fast (50–80%), or very fast (>80%). Such categories have been defined according to set criteria, namely, high metabolism (t1/2 value of <30 min), moderate metabolism (30 min <t1/2 value of <60 min), and low metabolism (t1/2 value of >60 min) (EMA, [2012], [2013]; FDA, [2020]).

SMILES | protection of PC12 cells from serum deprivation-induced cell death (CellTox) [1] | protection of NIH-3T3-TrkB cells from serum deprivation-induced cell death (CellTox) [2] | protection of PC12 cells from serum deprivation-induced death (CellTox) [1] | residual of time zero [3] | parent structure loss (depletion) class [3]
C[C@]12CC[C@H](O)CC1=CC[C@@H]1[C@@H]2CC[C@@]2(C)[C@H]1CC[C@@]21CC=CCO1 [ENT-A002, (3S,17R)-3′,6′-dihydrospiro[5-androstene-17,2′-pyran]-3-ol] | did not show any protective effects | did not show any protective effects |  |  | 
C[C@]12CC[C@H](O)CC1=CC[C@@H]1[C@@H]2CC[C@@]2(C)[C@H]1CC[C@@]21CC=C(CO)CO1 [ENT-A008] | none of these compounds provided any protective effects | none of these compounds provided any protective effects |  |  | 
COC(=O)CSCC1=CCC2(CCC3C4CC=C5CC(O)CCC5(C)C4CCC32C)OC1 [ENT-A026, Methyl (3S,17R)-3-hydroxy-3’,6’-dihydrospiro[5-androstene-17,2’-pyran]-5’-yl-methylthio acetate] | none of these compounds provided any protective effects | none of these compounds provided any protective effects |  |  | 
CC12CCC(O)CC1=CCC1C2CCC2(C)C1CCC21CC=C(CC#N)CO1 [ENT-A033, (3S,17R)-3-hydroxy-3′,6′-dihydrospiro[5-androstene-17,2′-pyran]-5′-yl-acetonitrile] | none of these compounds provided any protective effects | none of these compounds provided any protective effects |  |  | 
C[C@]12CC[C@H](O)CC1=CC[C@@H]1[C@@H]2CC[C@@]2(C)[C@H]1CC[C@@]21CC=C(CF)CO1 [ENT-A034] | none of these compounds provided any protective effects | none of these compounds provided any protective effects |  |  | 
CC12CCC(O)CC1=CCC1C2CCC2(C)C1CCC21CC=C(C=C2CCC2)CO1 [ENT-A065, (3S,17R)-5′-(cyclobutylidenemethyl)-3′,6′-dihydrospiro[5-androstene-17,2′-pyran]-3-ol] |  |  | promote cell survival as well as NGF does under stress conditions |  | 
CC12CCC(O)CC1=CCC1C2CCC2(C)C1CCC21CC=C(C=CBr)CO1 [ENT-A066, (3S,17R)-5′-(2-bromovinyl)-3′,6′-dihydrospiro[5-androstene-17,2′-pyran]-3-ol] |  |  | found to promote PC12 cell survival during stress conditions; also recorded: promote cell survival as well as NGF does under stress conditions | > 95% | very slow (very slow (<5%))
CC=CC1=CCC2(CCC3C4CC=C5CC(O)CCC5(C)C4CCC32C)OC1 [ENT-A068, (E, Z) (3S,17R)-5′-(prop-1-en-1-yl)-3′,6′-dihydrospiro[5-androstene-17,2′-pyran]-3-ol] |  |  | found to promote PC12 cell survival during stress conditions; also recorded: promote cell survival as well as NGF does under stress conditions |  | 
CCC1CCC2(CCC3C4CC=C5CC(O)CCC5(C)C4CCC32C)OC1 [ENT-A069, (3S,17R)-5′-(ethyl)-3′,6′-tetrahydrospiro[5-androstene-17,2′-pyran]-3-ol] |  |  | found to promote PC12 cell survival during stress conditions; also recorded: promote cell survival as well as NGF does under stress conditions | 95% | slow (slow (5–19%))
CCC1=CCC2(CCC3C4CC=C5CC(O)CCC5(C)C4CCC32C)OC1 [ENT-A070, (3S,17R)-5′-ethyl-3′,6′-dihydrospiro[5-androstene-17,2′-pyran]-3-ol] |  |  | found to promote PC12 cell survival during stress conditions; also recorded: promote cell survival as well as NGF does under stress conditions | > 95% | very slow (very slow (<5%))
